Literature values in US20120189710A1, “ANTIBACTERIAL COMPOSITIONS” (priority 2009, published 2012).

C=CCSC[C@H](N)C(=O)O [SAC, S-allyl cysteine]
water solubility: water soluble
